These results are taken from publication PMC4361037 (Annals of neurology, 2014).

For series [1], the system named is GAA repeat RNA–containing foci.
The conditions of series [2]: human, in vivo, po.
A short description of a further series: clinical. Conditions: human, in vivo, po; for half-life: t½ (elimination half-life).
Another series has as its system FXN mRNA. As to the kind of experiment: qRT-PCR analysis of FXN mRNA expression in FRDA iPSC-derived neurons. Conditions: 10μM, 24-hour treatment. Type of series: cell-based, human.
In the next series the test system is HDAC3 versus HDAC1/2. Conditions: cited from earlier work.
The subject of the next series is FXN mRNA and protein. The following applies: cited from earlier work; for upregulation of FXN mRNA and protein: patient PBMCs.
Series [3] addresses human ether-a-go-go related gene (hERG) (Homo sapiens, UniProt Q12809). As to the kind of experiment: Automated patch clamp assay. Type of series: cell-based.
A further series has as its system FXN transcription. Conditions: doses up to 8g per day; cited from earlier work.
The subject of series [4] is voltage-gated Na+ channel. It counts as cell-based, human.

Molecules are shown by their SMILES. Values joined by “and” are separate entries in the source; they are usually repeats but may differ in a detail not shown here. Identical values can stand only once. Like-named read-outs stand apart in the source and are kept apart here.

Sequence of human ether-a-go-go related gene (hERG) (Q12809 whole entry): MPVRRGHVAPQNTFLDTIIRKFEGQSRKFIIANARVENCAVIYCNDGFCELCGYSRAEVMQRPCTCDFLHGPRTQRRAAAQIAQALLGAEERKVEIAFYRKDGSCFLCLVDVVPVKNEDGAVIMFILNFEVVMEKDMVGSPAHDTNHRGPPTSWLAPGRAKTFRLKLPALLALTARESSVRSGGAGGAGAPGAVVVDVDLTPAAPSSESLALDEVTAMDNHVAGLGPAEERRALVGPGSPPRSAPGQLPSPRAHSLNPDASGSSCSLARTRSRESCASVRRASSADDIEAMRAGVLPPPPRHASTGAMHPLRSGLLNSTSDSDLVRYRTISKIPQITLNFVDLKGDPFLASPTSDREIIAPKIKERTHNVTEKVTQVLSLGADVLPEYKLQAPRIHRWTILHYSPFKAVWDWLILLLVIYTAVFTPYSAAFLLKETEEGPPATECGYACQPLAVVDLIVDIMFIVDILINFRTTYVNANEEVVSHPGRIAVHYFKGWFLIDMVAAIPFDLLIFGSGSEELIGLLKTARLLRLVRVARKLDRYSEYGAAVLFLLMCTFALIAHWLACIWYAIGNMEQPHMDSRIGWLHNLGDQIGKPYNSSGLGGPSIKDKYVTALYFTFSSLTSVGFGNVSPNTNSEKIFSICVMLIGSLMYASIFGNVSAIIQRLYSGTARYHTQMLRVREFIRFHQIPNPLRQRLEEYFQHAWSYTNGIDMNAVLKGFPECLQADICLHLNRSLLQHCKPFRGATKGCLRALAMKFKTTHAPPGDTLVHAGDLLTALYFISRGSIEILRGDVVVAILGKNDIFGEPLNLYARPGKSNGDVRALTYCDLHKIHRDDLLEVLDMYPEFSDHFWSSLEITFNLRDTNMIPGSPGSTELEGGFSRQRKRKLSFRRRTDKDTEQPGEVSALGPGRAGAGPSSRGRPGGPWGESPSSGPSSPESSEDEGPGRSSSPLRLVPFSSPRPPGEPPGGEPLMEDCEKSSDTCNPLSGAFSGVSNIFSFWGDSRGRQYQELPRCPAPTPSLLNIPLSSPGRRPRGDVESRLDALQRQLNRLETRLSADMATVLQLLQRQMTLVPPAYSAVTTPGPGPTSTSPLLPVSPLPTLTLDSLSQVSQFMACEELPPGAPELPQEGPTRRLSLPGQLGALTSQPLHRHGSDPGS

Regarding `Cc1ccc(C(=O)NCCCCCC(=O)Nc2ccccc2N)cc1` [HDACi 109, N-[6-(2-aminophenylamino) −6-oxohexyl]-4-methylbenzamide], the “GAA•TTC repeat instability” value in the series on GAA•TTC repeats was “no effect on repeat instability”. Also, in series [1], the RNA nuclear foci result is on record as “lack of RNA nuclear foci”. The CL/F is 6.39±1.71 (5) l/h in series [2]; 3.91±0.59 (2) l/h in series [2] (30 mg); 6.43±1.51 (3) l/h in series [2] (60 mg); 5.80±1.46 (5) l/h in series [2] (120 mg); 5.24±0.89 (5) l/h in series [2] (180 mg); 1.98 mL/min/kg in the series “clinical”. The CL/F was 1.02 mL/min/kg in the series “clinical” (30 mg), 1.45 mL/min/kg in the series “clinical” (60 mg), 1.42 mL/min/kg in “clinical” (120 mg) and 1.65 mL/min/kg in “clinical” (180 mg). Also, the “Cmax (time of)” value in series [2] is no more than 2 h. In addition, the total exposure AUC(0-inf) stood at 39600 ng·h/mL in “clinical”; 7760 ng·h/mL in “clinical” (30 mg); 9720 ng·h/mL in the series “clinical” (60 mg); 22000 ng·h/mL in the series “clinical” (120 mg); 35100 ng·h/mL in “clinical” (180 mg). For the same compound, the AUC(0-t) in “clinical” is 39300 ng·h/mL; in “clinical” (30 mg) it was 7700 ng·h/mL; in the series “clinical” (60 mg), 9630 ng·h/mL; in the series “clinical” (120 mg) it was 21700 ng·h/mL; in the series “clinical” (180 mg), 34900 ng·h/mL. For the same compound, the Cmax in the series “clinical” is 7150 ng/mL; in “clinical” (30 mg), 1980 ng/mL; in the series “clinical” (60 mg), 2560 ng/mL; in “clinical” (120 mg), 6470 ng/mL; in “clinical” (180 mg) it was 10900 ng/mL. Also, the Tmax in the series “clinical” is 0.5 h; in “clinical” (30 mg), 0.67 h; in “clinical” (60 mg), 0.67 h; in “clinical” (120 mg), 1 h; in “clinical” (180 mg), 0.67 h. Besides, the Vd/F was 75.5 L and 1.41 L/kg in “clinical”; 45.1 L and 0.69 L/kg in the series “clinical” (30 mg); 79 L and 1.04 L/kg in the series “clinical” (60 mg); 89.7 L and 1.32 L/kg in “clinical” (120 mg); 52.8 L and 1 L/kg in the series “clinical” (180 mg). The k el in the series “clinical” is 2.34e-05 s⁻¹; in the series “clinical” (30 mg), 2.49e-05 s⁻¹; in the series “clinical” (60 mg), 2.37e-05 s⁻¹; in the series “clinical” (120 mg), 2.05e-05 s⁻¹; in the series “clinical” (180 mg), 2.82e-05 s⁻¹. Moreover, the half-life is 8.2 h in “clinical” (30 mg); 8.43 h in “clinical” (60 mg); 10.1 h in “clinical” (120 mg); 7.07 h in “clinical” (180 mg); 8.56 h in “clinical”.

As for `Nc1ccc(-c2cccs2)cc1NC(=O)CCCCCCNC(=O)c1cccnc1` [HDACi 233, N-[2-amino-5-(2-thienyl)phenyl]-7-nicotinoylamino-heptanamide], the “FXN gene expression induction compared with HDACi 109” value with FXN mRNA is “Neither of these latter compounds induced FXN gene expression to the extent observed with HDACi 109”.

`Nc1cc(F)ccc1NC(=O)/C=C/c1cnn(CC=Cc2ccccc2)c1` [HDACi 966, [E]-N-[2-amino-4-fluorophenyl]-3-[1-cinnamyl-1H-pyrazol-4-yl]acrylamide]: the “FXN gene expression induction compared with HDACi 109” value in the series with FXN mRNA is recorded as “Neither of these latter compounds induced FXN gene expression to the extent observed with HDACi 109”. Besides, in the series with HDAC3 versus HDAC1/2, the “selectivity for HDAC3 over HDAC1/2” value is reported as ~ 30 fold.

`Nc1ccc(-c2ccccc2)cc1NC(=O)CCCCCC(=O)Nc1ccccc1` [N[1]-[4-aminobiphenyl-3-yl]-N[7]-phenylheptanediamide]: in the series with FXN mRNA and protein (patient lymphocytes), the FXN upregulation entry was “inactive”.

For the compound `O=C(CCCCCCC(=O)Nc1ccccc1)NO` [SAHA, suberoylanilide hydroxamic acid], the “upregulation of FXN mRNA and protein” value with FXN mRNA and protein is “fail to elicit this effect”.

Turning to `c1ccc2[nH]cnc2c1` [benzimidazole], the half-maximal inhibitory concentration (IC50) in [3] came out at 920 nM. This counts as sub-micromolar.

`NC(=O)c1cccnc1` [nicotinamide]: in the series on FXN transcription, the “restoring FXN transcription in peripheral lymphocytes from blood of orally dosed patients” value is reported as “effective”.

With `NC1=N[C@H](O)[C@H]2[C@H]3O[C@]4(O)O[C@@H]([C@@H](O)[C@@]2(N1)[C@@H]4O)[C@]3(O)CO` [tetrodotoxin], the action potential generation entry in series [4] is “reversibly blocked AP generation”.

As to `Cc1ccc(S(=O)(=O)O)cc1` [toluene sulfonic acid], the “upregulation of FXN mRNA and protein” value with FXN mRNA and protein is reported as “fail to elicit this effect”.

One may read the AUC(0-inf) as total exposure, with the tail of the curve extrapolated. The term AUC(0-t) denotes exposure summed from dosing to a finite time, without extrapolation to infinity. Higher therefore signals high exposure. For orientation: Cmax means the maximum level reached in the sampled fluid or tissue. As a reminder, the Tmax is the time at which the peak concentration occurs. As usually defined, the Vd/F is the volume of distribution divided by bioavailability. Usually half-life stands for the time in which the quantity being followed falls by half. High values mean slow loss, low ones fast loss. In general, IC50 refers to the midpoint of a concentration-inhibition curve. A lower IC50 goes with greater potency.
